Laboratory results from patent US20150031572A1, “MEANS AND METHODS FOR ASSESSING NEURONAL TOXICITY” (priority 2012, published 2015).
Where a name gives a salt, the structure may show the parent alone. Marks after values point to notes of the source that are not given here.

Assay: Plasma metabolite profiling (GC-MS, LC-MS, SPE-LC-MS) of rats dosed once daily over 28 days; treatment ratios versus untreated control
Assay type: in vivo, rat
Experimental: A group of each 5 male and female rats was dosed once daily with the indicated compounds (see Table 10, below for compounds, applied doses and administration details) over 28 days.
Each dose group in the studies consisted of five rats per sex. Additional groups of each 5 male and female animals served as controls. Before starting the treatment period, animals, which were 62-64 days old when supplied, were acclimatized to the housing and environmental conditions for 7 days. All animals of the animal population were kept under the same constant temperature (20-24±3° C.) and the same constant humidity (30-70%). The animals of the animal population were fed ad libitum. The food to be used was essentially free of chemical or microbial contaminants. Drinking water was also offered ad libitum. Accordingly, the water was free of chemical and microbial contaminants as laid down in the European Drinking Water Directive 98/83/EG. The illumination period was 12 hours light followed by 12 hours darkness (12 hours light, from 6:00 to 18:00, and 12 hours darkness, from 18:00 to 6:00). […] The test substances (compounds) in the Tables 1 to 9 below were dosed and administered as described in the Table 10 above.
In the morning of day 7, 14, and 28, blood was taken from the retro-orbital venous plexus from fasted anaesthetized animals. From each animal, 1 ml of blood was collected with EDTA as anticoagulant. The samples were centrifuged for generation of plasma. All plasma samples were covered with a N2 atmosphere and then stored at −80° C. until analysis.
For mass spectrometry-based metabolite profiling analyses plasma samples were extracted and a polar and a non-polar (lipid) fraction was obtained. For GC-MS analysis, the non-polar fraction was treated with methanol under acidic conditions to yield the fatty acid methyl esters. Both fractions were further derivatised with O-methyl-hydroxyamine hydrochloride and pyridine to convert Oxogroups to O-methyloximes and subsequently with a silylating agent before analysis. In LC-MS analysis, both fractions were reconstituted in appropriate solvent mixtures. HPLC was performed by gradient elution on reversed phase separation columns. Mass spectrometric detection which allows target and high sensitivity MRM (Multiple Reaction Monitoring) profiling in parallel to a full screen analysis was applied as described in WO2003073464.
Steroids and their metabolites were measured by online SPE-LC-MS (Solid phase extraction-LC-MS).
Following comprehensive analytical validation steps, the data for each analyte were normalized against data from pool samples. These samples were run in parallel through the whole process to account for process variability. The significance of treatment group values specific for sex, treatment duration and metabolite was determined by comparing means of the treated groups to the means of the respective untreated control groups using WELCH-test and quantified with treatment ratios versus control and p-values.
The identification of the most important biomarkers per toxicity pattern was done by a ranking of the analytes in the tables below. Therefore the metabolic changes in reference treatments of a given pattern (shown in the table) were compared with changes of the same metabolite in other unrelated treatments. […] The maximum absolute value of the respective TVALUE was taken to indicate the most important metabolite for the pattern.

[1] = plasma, female rats, day 7, high dose, Table 4a
[2] = plasma, female rats, day 7, high dose, Table 4b
[3] = plasma, female rats, day 14, high dose, Table 4a
[4] = plasma, female rats, day 14, high dose, Table 4b
[5] = plasma, female rats, day 28, high dose, Table 4a
[6] = plasma, female rats, day 28, high dose, Table 4b
[7] = plasma, male rats, day 7, high dose, Table 8a
[8] = plasma, male rats, day 7, high dose, Table 8b
[9] = plasma, male rats, day 14, high dose, Table 8a
[10] = plasma, male rats, day 14, high dose, Table 8b
[11] = plasma, male rats, day 28, high dose, Table 8a
[12] = plasma, male rats, day 28, high dose, Table 8b
[13] = plasma, female rats, day 7, high dose, Table 9a
[14] = plasma, female rats, day 7, high dose, Table 9b
[15] = plasma, female rats, day 14, high dose, Table 9a
[16] = plasma, female rats, day 14, high dose, Table 9b
[17] = plasma, female rats, day 28, high dose, Table 9a
[18] = plasma, female rats, day 28, high dose, Table 9b
[19] = plasma, male rats, day 7, high dose, Table 9c
[20] = plasma, male rats, day 7, high dose, Table 9d
[21] = plasma, male rats, day 14, high dose, Table 9c
[22] = plasma, male rats, day 14, high dose, Table 9d
[23] = plasma, male rats, day 28, high dose, Table 9c
[24] = plasma, male rats, day 28, high dose, Table 9d
[25] = plasma, female rats, day 7, high dose, Table 7b
[26] = plasma, female rats, day 14, high dose, Table 7a
[27] = plasma, female rats, day 14, high dose, Table 7b
[28] = plasma, female rats, day 28, high dose, Table 7a
[29] = plasma, female rats, day 28, high dose, Table 7b

## CN(C)CCCN1c2ccccc2Sc2ccc(Cl)cc21 [Chlorpromazine]
[1]
  Ceramide (d18:1,C24:1), ratio versus control: 2.34*
  Docosapentaenoic acid (C22:cis[7,10,13,16,19]5), ratio versus control: 1.46
  Elaidic acid (C18:trans[9]1), ratio versus control: 1.46
  Myristic acid (C14:0), ratio versus control: 0.91
  Phosphatidylcholine (C16:0,C16:0), ratio versus control: 1.11*
  Phosphatidylcholine (C16:1,C18:2), ratio versus control: 1.38*
  TAG No 07, ratio versus control: 2.57*
  myo-Inositol, lipid fraction, ratio versus control: 1.42
[2]
  Creatinine, ratio versus control: 0.97
  Glutamate, ratio versus control: 0.83*
  Glycine, ratio versus control: 1.01
  Lactate, ratio versus control: 0.65*
  Myristic acid (C14:0), ratio versus control: 0.91
  Uric acid, ratio versus control: 0.62*
[3]
  Ceramide (d18:1,C24:1), ratio versus control: 1.44*
  Docosapentaenoic acid (C22:cis[7,10,13,16,19]5), ratio versus control: 1.17
  Galactose, lipid fraction, ratio versus control: 1
  Myristic acid (C14:0), ratio versus control: 1.04
  Phosphatidylcholine (C16:0,C16:0), ratio versus control: 1.3*
  Phosphatidylcholine (C16:1,C18:2), ratio versus control: 1.02
  TAG No 07, ratio versus control: 1.79
  myo-Inositol, lipid fraction, ratio versus control: 1.02
[4]
  Creatinine, ratio versus control: 0.86
  Glutamate, ratio versus control: 0.93*
  Lactate, ratio versus control: 0.97
  Myristic acid (C14:0), ratio versus control: 1.04
  Uric acid, ratio versus control: 0.84
[5]
  Ceramide (d18:1,C24:1), ratio versus control: 1.22
  Docosapentaenoic acid (C22:cis[7,10,13,16,19]5), ratio versus control: 1.18*
  Elaidic acid (C18:trans[9]1), ratio versus control: 0.98
  Galactose, lipid fraction, ratio versus control: 0.91
  Myristic acid (C14:0), ratio versus control: 0.89
  Phosphatidylcholine (C16:0,C16:0), ratio versus control: 1.14
  Phosphatidylcholine (C16:1,C18:2), ratio versus control: 1
  TAG No 07, ratio versus control: 2.1*
  myo-Inositol, lipid fraction, ratio versus control: 0.96
[6]
  Creatinine, ratio versus control: 0.84*
  Glutamate, ratio versus control: 1.05
  Glycine, ratio versus control: 1.01
  Lactate, ratio versus control: 0.94
  Myristic acid (C14:0), ratio versus control: 0.89*
  Uric acid, ratio versus control: 0.88
rat, in vivo
  Elaidic acid (C18:trans[9]1), ratio versus control: 1.16*
  Galactose, lipid fraction, ratio versus control: 1.34*
  Glycine, ratio versus control: 1.06*

## CNCCC(Oc1ccc(C(F)(F)F)cc1)c1ccccc1 (stereo not drawn) [Fluoxetine hydrochloride]
[7]
  Ceramide (d18:1,C24:1), ratio versus control: 1.77
  threo-Sphingosine, ratio versus control: 1.2
[8]
  DAG (C18:1,C18:2), ratio versus control: 0.65*
  Serotonin (5-HT), ratio versus control: 0.33*
[9]
  4-Hydroxysphinganine (t18:0, Phytosphingosine), total, ratio versus control: 1.51*
  Ceramide (d18:1,C24:1), ratio versus control: 1.91*
[10]
  DAG (C18:1,C18:2), ratio versus control: 0.64*
  Serotonin (5-HT), ratio versus control: 0.07*
[11]
  4-Hydroxysphinganine (t18:0, Phytosphingosine), total, ratio versus control: 2.57*
  Ceramide (d18:1,C24:1), ratio versus control: 1.85*
  threo-Sphingosine, ratio versus control: 2.2*
[12]
  DAG (C18:1,C18:2), ratio versus control: 0.63*
  Serotonin (5-HT), ratio versus control: 0.28*
rat, in vivo
  4-Hydroxysphinganine (t18:0, Phytosphingosine), total, ratio versus control: 1.34*
  threo-Sphingosine, ratio versus control: 1.45*

## O=C1CCCC(=O)C1C(=O)c1ccc(C(F)(F)F)cc1[N+](=O)[O-] [NTBC (HPPD-Inhibitor), NTBC]
[13]
  4-Hydroxyphenylpyruvate, ratio versus control: 245.75*
  Glycine, ratio versus control: 1.2*
  Phosphatidylcholine (C18:0,C18:2), ratio versus control: 1.03*
  Serine, ratio versus control: 1.38*
  TAG (C16:0,C18:2), ratio versus control: 1.62*
  TAG (C18:1,C18:2), ratio versus control: 2.45*
  TAG (C18:2,C18:2), ratio versus control: 1.91*
  Threonine, ratio versus control: 1.43*
  Tyrosine, ratio versus control: 37.75*
  gamma-Linolenic acid (C18:cis[6,9,12]3), ratio versus control: 1.34
[14]
  5-Oxoproline, ratio versus control: 0.5*
  Glutamine, ratio versus control: 0.54*
[15]
  4-Hydroxyphenylpyruvate, ratio versus control: 293.51*
  Glycine, ratio versus control: 1.33*
  Phosphatidylcholine (C18:0,C18:2), ratio versus control: 1
  Serine, ratio versus control: 1.48*
  TAG (C16:0,C18:2), ratio versus control: 1.37*
  TAG (C18:1,C18:2), ratio versus control: 2.22*
  TAG (C18:2,C18:2), ratio versus control: 1.92*
  Threonine, ratio versus control: 1.82*
  Tyrosine, ratio versus control: 50.64*
  gamma-Linolenic acid (C18:cis[6,9,12]3), ratio versus control: 1.61*
[16]
  5-Oxoproline, ratio versus control: 0.55*
  Glutamine, ratio versus control: 0.46*
[17]
  4-Hydroxyphenylpyruvate, ratio versus control: 276.92*
  Glycine, ratio versus control: 1.48*
  Phosphatidylcholine (C18:0,C18:2), ratio versus control: 1.05*
  Serine, ratio versus control: 1.43*
  TAG (C16:0,C18:2), ratio versus control: 1.44*
  TAG (C18:1,C18:2), ratio versus control: 1.51*
  TAG (C18:2,C18:2), ratio versus control: 1.31*
  Threonine, ratio versus control: 1.52*
  Tyrosine, ratio versus control: 38.31*
  gamma-Linolenic acid (C18:cis[6,9,12]3), ratio versus control: 1.55*
[18]
  5-Oxoproline, ratio versus control: 0.69*
  Glutamine, ratio versus control: 0.48*
[19]
  4-Hydroxyphenylpyruvate, ratio versus control: 364.14*
  Lysine, ratio versus control: 1.12
  Threonine, ratio versus control: 1.36*
  Tyrosine, ratio versus control: 56.14*
[20]
  5-Oxoproline, ratio versus control: 0.6*
  Citrulline, ratio versus control: 0.84*
  Glutamine, ratio versus control: 0.55*
  Phenylalanine, ratio versus control: 0.78*
[21]
  4-Hydroxyphenylpyruvate, ratio versus control: 435.77*
  Lysine, ratio versus control: 1.4*
  Threonine, ratio versus control: 1.51*
  Tyrosine, ratio versus control: 58.08*
[22]
  5-Oxoproline, ratio versus control: 0.61*
  Citrulline, ratio versus control: 0.88*
  Glutamine, ratio versus control: 0.57*
  Phenylalanine, ratio versus control: 0.77*
[23]
  4-Hydroxyphenylpyruvate, ratio versus control: 366.39*
  Lysine, ratio versus control: 1.46*
  Threonine, ratio versus control: 1.54*
  Tyrosine, ratio versus control: 52.56*
[24]
  5-Oxoproline, ratio versus control: 0.6*
  Citrulline, ratio versus control: 0.83*
  Glutamine, ratio versus control: 0.58*
  Phenylalanine, ratio versus control: 1.02

## Fc1ccc([C@@H]2CCNC[C@H]2COc2ccc3c(c2)OCO3)cc1 [Paroxetine hydrochloride]
plasma, female rats, day 7, high dose, Table 7a
  alpha-Tocopherol, ratio versus control: 1.08
[25]
  Adrenaline (Epi-nephrine), ratio versus control: 0.19*
  Glutamate, ratio versus control: 0.7*
  Serotonin (5-HT), ratio versus control: 0.09*
[26]
  4-Hydroxysphinganine (t18:0, Phytosphingosine), total, ratio versus control: 1.9*
  Threonine, ratio versus control: 1.65*
  alpha-Tocopherol, ratio versus control: 1.31*
[27]
  Adrenaline (Epi-nephrine), ratio versus control: 0.36*
  Glutamate, ratio versus control: 0.68*
  Serotonin (5-HT), ratio versus control: 0.07*
[28]
  4-Hydroxysphinganine (t18:0, Phytosphingosine), total, ratio versus control: 2.11*
  Threonine, ratio versus control: 1.4*
[29]
  Adrenaline (Epi-nephrine), ratio versus control: 0.89
  Glutamate, ratio versus control: 0.85
  Serotonin (5-HT), ratio versus control: 0.04*
rat, in vivo
  4-Hydroxysphinganine (t18:0, Phytosphingosine), total, ratio versus control: 1.99*
  Threonine, ratio versus control: 1.41*
  alpha-Tocopherol, ratio versus control: 1.32*

## CCCC(C)C1(CC)C(=O)NC(=O)NC1=O (stereo not drawn) [Pentobarbital sodium i.p., Pentobarbital sodium]
rat, in vivo
  3-Indoxylsulfate, ratio versus control: 1.44 *
  Cysteine, ratio versus control: 0.64 *
  Ketoleucine, ratio versus control: 1.09
  Malate, ratio versus control: 0.83 *
  Pantothenic acid, ratio versus control: 1.14^
  Phosphate (inorganic and organic phosphates), ratio versus control: 1.21 *
  Phosphatidylcholine (C16:0, C20:4), ratio versus control: 1 *
  Phosphatidylcholine (C16:0, C22_6), ratio versus control: 0.94 *
  alpha-Tocopherol, ratio versus control: 1.23 *
